Experimental data published in patent US20030013660A1, “Dioxolane analogs for improved inter-cellular delivery” (Shire BioChem Inc., priority 2000, published 2003).
“And” between values parts separate entries of the source, which are not always exact repeats. Equal entries are not always repeated.

Key:
MCF-7 [1] = test: 3H-TdR (3H-thymidine) incorporation assay at 72 hr; type: cell-based, Human; settings: Homo sapiens, MCF7, read-out: IC50 MCF-7 24 h, 24 h drug exposure, wash, another 48 hr; 3H-TdR incorporation at 72 hr
CCRF-CEM [2] = test: MTT or WST-1 assay at 72 hr (24 hr drug exposure, wash, 48 hr); type: cell-based
Protocol: (§1) Exposition of 24hr to drug, washed, and incubated for another 48hr (total of 72hr assay)

H-460 [3] = test: 3H-TdR (3H-thymidine) incorporation assay at 72 hr; type: cell-based, Human; settings: Homo sapiens, NCI-H460, read-out: IC50 H-460 24 h, 24 h drug exposure, wash, another 48 hr; 3H-TdR incorporation at 72 hr
SF-268 [4] = test: 3H-TdR (3H-thymidine) incorporation assay at 72 hr; type: cell-based, Human; settings: Homo sapiens, SF-268, read-out: IC50 SF-268 24 h, 24 h drug exposure, wash, another 48 hr; 3H-TdR incorporation at 72 hr
CEM/dCK- [5] = test: 3H-TdR (3H-thymidine) incorporation assay at 72 hr; type: cell-based
Protocol: (§2) Table of IC50 Values (μM) for Controls
(§3) Exposition of 24 hr to drug, wash, incubated for another 48 hr (total of 72 hr assay)
(§4) (3H-Thymidine Incorporation Assay)

CCRF-CEM [6] = test: 3H-TdR (3H-thymidine) incorporation assay at 72 hr; type: cell-based; settings: Homo sapiens, CCRF-CEM, read-out: IC50 CCRF-CEM 24 h, 24 h drug exposure, wash, another 48 hr; 3H-TdR incorporation at 72 hr
Protocol: as §2, §3, §4

CEM/dCK- [7] = test: 3H-TdR incorporation at 72 hr (24 hr drug exposure, wash, 48 hr); type: cell-based; settings: for IC50: Homo sapiens, CCRF-CEM, read-out: IC50 in μM (3H-TdR incorporation at 72 hr) CEM/dCK- 24 h, CCRF-CEM deoxycytidine kinase-deficient, 24 h drug exposure, 72 hr assay; for Factor* (Resistance Factor = Ratio of dCK- on Wild-type CCRF-CEM): ratio of IC50 CEM/dCK- to IC50 CCRF-CEM
Protocol: as §3, §4

CCRF-CEM [8] = test: as above; type: cell-based; settings: read-out: IC50 in μM (3H-TdR incorporation at 72 hr) CCRF-CEM 24 h, CCRF-CEM T-cell Leukemia, 72 hr assay
Protocol: as §3, §4

SF-268 [9] = test: as above; type: cell-based, Human; settings: Homo sapiens, SF-268, read-out: IC50 in μM (3H-TdR incorporation at 72 hr) SF-268 24 h, SF-268 Human Central Nervous System Tumor; 24 h drug exposure, 72 hr assay
Protocol: as §3, §4

H-460 [10] = test: as above; type: cell-based, Human; settings: Homo sapiens, NCI-H460, read-out: IC50 in μM (3H-TdR incorporation at 72 hr) H-460 24 h, H-460 Human Lung Carcinoma, 72 hr assay
Protocol: as §3, §4

MCF-7 [11] = test: as above; type: cell-based, Human; settings: Homo sapiens, MCF7, read-out: IC50 in μM (3H-TdR incorporation at 72 hr) MCF-7 24 h, MCF-7 Human Breast Carcinoma, 72 hr assay
Protocol: as §3, §4

CEM/dCK- [12] = test: MTT or WST-1 assay at 72 hr (24 hr drug exposure, wash, 48 hr); type: cell-based
Protocol: as §1

MCF-7 [13] = test: MTT assay at 72 hr (24 hr drug exposure, wash, 48 hr); type: cell-based
Protocol: as §1

H-460 [14] = test: as above; type: cell-based
Protocol: as §1

SF-268 [15] = test: as above; type: cell-based
Protocol: as §1

[16] = Homo sapiens, CCRF-CEM, read-out: IC50 CCRF-CEM 24 h, MMT or WST-1 at 72 hr, 24 h exposure, single experiment
[17] = read-out: IC50 CCRF-CEM 24 h, MMT or WST-1 at 72 hr, 24 h exposure, single experiment
[18] = CEM/dCK- versus CCRF-CEM, single experiment
[19] = read-out: IC50 CEM/dCK- 24 h; MMT or WST-1 at 72 hr, 24 h exposure, single experiment
[20] = Homo sapiens, MCF7, read-out: IC50 MCF-7 24 h, MTT at 72 hr, 24 h exposure, single experiment
[21] = read-out: IC50 MCF-7 24 h, MTT at 72 hr, 24 h exposure, single experiment
[22] = read-out: IC50 CEM/dCK- 24 h, MMT or WST-1 at 72 hr, 24 h exposure, single experiment
[23] = Homo sapiens, NCI-H460, read-out: IC50 H-460 24 h, MTT at 72 hr, 24 h exposure, single experiment
[24] = read-out: IC50 H-460 24 h, MTT at 72 hr, 24 h exposure, single experiment
[25] = Homo sapiens, SF-268, read-out: IC50 SF-268 24 h, MTT at 72 hr, 24 h exposure, single experiment
[26] = read-out: IC50 SF-268 24 h, MTT at 72 hr, 24 h exposure, single experiment

IC50 (CCRF-CEM [2]; [16]) [nM]	IC50 (CCRF-CEM [2]; [17])	IC50 (CEM/dCK- [7]) [µM]	IC50 (CCRF-CEM [8]; Homo sapiens, CCRF-CEM) [nM]	IC50 (SF-268 [9]) [µM]	IC50 (H-460 [10]) [µM]	IC50 (MCF-7 [11]) [µM]	SMILES	Factor* (Resistance Factor = Ratio of dCK- on Wild-type CCRF-CEM) (CEM/dCK- [7])	IC50 (CEM/dCK- [12]; [19])	IC50 (CEM/dCK- [12]; [22]) [nM]	IC50 (H-460 [14]; [24])	also measured
–	–	–	0.027	–	–	–	CCCCC[C@]12CC[C@](C(=O)OC[C@H]3OC[C@@H](n4ccc(N)nc4=O)O3)(CC1)CC2 [Compound 211, 4-PENTYL- BICYCLO[2.2.2]OCTANE-1- CARBOXYLIC ACID 4-(4- AMINO-2-OXO-2H- PYRIMIDIN-1-YL)- [1,3]DIOXOLAN-2-YL METHYL ESTER]	–	–	–	–	IC50 (CCRF-CEM [8]): 0.053 nM; IC50 (SF-268 [15]; [26]): 34 nM
18	10 nM	2.1	–	0.00012	≤ 0.0001	≤ 0.0001	CCCCCCCC/C=C\CCCCCCCC(=O)Nc1ccn([C@@H]2CO[C@H](CO)O2)c(=O)n1 [Compound 219, OCTADEC-9-ENOIC ACID [1-(2-HYDROXYMETHYL- [1,3]DIOXOLAN-4-YL)-2- OXO-1,2-DIHYDRO- PYRIMIDIN-4-YL]-AMIDE]	–	–	–	–	–
–	–	> 100	62	0.25	0.035	0.15	Nc1ccn([C@@H]2CO[C@H](COC(=O)C3(c4ccccc4)CC3)O2)c(=O)n1 [Compound 223, 1-PHENYL- CYCLOPROPANECARBOXYLIC ACID 4-(4-AMINO-2-OXO- 2H-PYRIMIDIN-1-YL)- [1,3]DIOXOLAN-2-YL METHYL ESTER]	>1613	–	> 100000	–	IC50 (MCF-7 [13]; [20]): 1700 nM; IC50 (MCF-7 [13]; [21]): 2100 nM and 1400 nM
–	–	20	3	0.19	0.0065	0.00033	CCCCC[C@H]1CC[C@H](C(=O)Nc2ccn([C@@H]3CO[C@H](CO)O3)c(=O)n2)CC1 [Compound 239, 4-PENTYL- CYCLOHEXANECARBOXYLIC ACID [1-(2- HYDROXYMETHYL- [1,3]DIOXOLAN-4-YL)-2- OXO-1,2-DIHYDRO- PYRIMIDIN-4-YL]-AMIDE]	6667	28000 nM and 17000 nM	20000	200 nM	–
–	–	15	100	0.13	0.13	0.00078	CC(CCCCCCc1ccccc1)C(=O)Nc1ccn([C@@H]2CO[C@H](CO)O2)c(=O)n1 (some centres unmarked) [Compound 247, 2-Methyl-8-phenyl-octanoic acid [1-(2-hydroxymethyl-[1,3]dioxolan-4-yl)-2-oxo-1,2-dihydro-pyrimidin-4-yl]-amide]	150	49000 nM	61000	540 nM and 460 nM	IC50 (H-460 [14]; [23]): 390 nM
4100	5400 nM	> 100	4200	1.6	9.7	5	CC(C)C[C@H](N)C(=O)Nc1ccn([C@@H]2CO[C@H](CO)O2)c(=O)n1 [Compound 257, 2-AMINO-4-METHYL- PENTANOIC ACID [1-(2- HYDROXYMETHYL- [1,3]DIOXOLAN-4-YL)-2- OXO-1,2-DIHYDRO- PYRIMIDIN-4-YL]-AMIDE]	>24	–	> 100000	–	IC50 (SF-268 [15]; [25]): > 100000 nM; IC50 (MCF-7 [13]; [20]): 36000 nM; IC50 (MCF-7 [13]; [21]): 21000 nM
19000	14000 nM	–	–	–	–	–	CC(C)C[C@H](NC(=O)[C@H](C)NC(=O)OC(C)(C)C)C(=O)Nc1ccn([C@@H]2CO[C@H](CO)O2)c(=O)n1 [Compound 263, (1-{1-[1-(2- HYDROXYMETHYL- [1,3]DIOXOLAN-4-YL)-2- OXO-1,2-DIHYDRO- PYRIMIDIN-4- YLCARBANOYL]-3-METHYL- BUTYLCARBAMOYL}-ETHYL)- CARBAMIC ACID TERT- BUTYL ESTER]	–	–	> 100000	> 100000 nM	IC50 (SF-268 [15]; [25]): > 100000 nM; IC50 (H-460 [14]; [23]): 66000 nM

More lines, now with the values behind:

SMILES	IC50 (CCRF-CEM [2]; [16]) [nM]	IC50 (CCRF-CEM [2]; [17])	IC50 (CEM/dCK- [7]) [µM]	IC50 (CCRF-CEM [8]; Homo sapiens, CCRF-CEM) [nM]	IC50 (SF-268 [9]) [µM]	IC50 (H-460 [10]) [µM]	IC50 (MCF-7 [11]) [µM]	Factor* (Resistance Factor = Ratio of dCK- on Wild-type CCRF-CEM) (CEM/dCK- [7])	IC50 (CEM/dCK- [12]; [19])	IC50 (CEM/dCK- [12]; [22]) [nM]	IC50 (H-460 [14]; [24])	also measured
Nc1ccn([C@@H]2CO[C@H](COC(=O)C34CC5CC(CC(C5)C3)C4)O2)c(=O)n1 [Compound 110, ADAMANTANE-1-CARBOXYLIC ACID 4-(4-AMINO-2-OXO- 2H-PYRIMIDIN-1-YL)- [1,3]DIOXOLAN-2- YLMETHYL ESTER]	3.4	2.5 nM and 4 nM	–	–	–	–	–	–	–	–	–	IC50 (MCF-7 [1]): 10 nM; IC50 (H-460 [3]): 1 nM; IC50 (SF-268 [4]): 4.9 nM; IC50 (CEM/dCK- [5]; Homo sapiens, CCRF-CEM, read-out: IC50 CEM/dCK- 24 h, 24 h drug exposure, wash, another 48 hr, deoxycytidine kinase-deficient CCRF-CEM): 4300 nM; Factor* (Resistance Factor = Ratio of dCK- on Wild-type CCRF-CEM) (CEM/dCK- [5]; ratio of IC50 CEM/dCK- to CCRF-CEM, 24 h): 3307; IC50 (CCRF-CEM [6]): 1.3 nM
COc1ccc(C(OC[C@H]2OC[C@@H](n3ccc(N)nc3=O)O2)(c2ccc(OC)cc2)c2ccc(OC)cc2)cc1 [Compound 185, 4-AMINO-1-{2-[TRIS-(4- METHOXY-PHENYL)- METHOXYMETHYL]- [1,3]DIOXOLAN-4-YL}-1H- PYRIMIDIN-2-ONE]	–	180 nM	17	66	0.054	0.059	0.064	258	12000 nM	–	–	Resistance Factor* (CEM/dCK- [12]; [18]): 67; IC50 (MCF-7 [13]; [20]): 1400 nM; IC50 (MCF-7 [13]; [21]): 2300 nM
O=C(CCCCCCCc1ccccc1)Nc1ccn([C@@H]2CO[C@H](COC(=O)CCCCCCCc3ccccc3)O2)c(=O)n1 [Compound 196, 8-PHENYL-OCTANOIC ACID 4-[2-OXO-4-(8-PHENYL- OCTANOYLAMINO)-2H- PYRIMIDIN-1-YL]- [1,3]DIOXOLAN-2-YL METHYL ESTER]	10	–	–	–	< 0.0001	< 0.0001	< 0.0001	–	–	–	–	–
CC(=O)Oc1ccc(COC(=O)Nc2ccn([C@@H]3CO[C@H](COC(=O)OCc4ccc(OC(C)=O)cc4)O3)c(=O)n2)cc1 [Compound 202, Acetic acid 4-(1-{2-[4-(Acetyloxy)benzyloxycarbonyloxymethyl]-[1,3]dioxolan-4-yl}2-oxo-1,2-dihydropyrimidin-4-ylcarbamoyloxymethyl)-phenyl Ester]	14	–	–	< 0.1	–	–	< 0.0001	>1000	> 100 nM	50	–	Resistance Factor* (CEM/dCK- [12]; [18]): >7
CCCCCCCCCCCC(=O)Nc1ccn([C@@H]2CO[C@H](CO)O2)c(=O)n1 [Compound 208, DODECANOIC ACID [1-(2- HYDROXYMETHYL- [1,3]DIOXOLAN-4-YL)-2- OXO-1,2-DIHYDRO- PYRIMIDIN-4-YL]-AMIDE]	–	–	–	< 0.1	–	–	–	–	–	–	200 nM	IC50 (CCRF-CEM [8]): 0.052 nM; IC50 (H-460 [14]; [23]): 110 nM
CCCCC[C@]12CC[C@](C(=O)Nc3ccn([C@@H]4CO[C@H](CO)O4)c(=O)n3)(CC1)CC2 [Compound 210, 4-Pentyl-Bicyclo[2.2.2]Octane-1-Carboxylic Acid [1-(2-Hydroxymethyl-[1,3]Dioxolan-4-Yl)-2-Oxo-1,2-Dihydro-Pyrimidin-4-Yl]-Amide]	–	–	> 100	–	0.26	0.0026	0.005	–	–	–	–	IC50 (SF-268 [15]; [25]): ≥ 100000 nM; IC50 (SF-268 [15]; [26]): > 100000 nM and 51000 nM
